According to the supplement of paper PMC11061612:

Assays:
Experiment in all cases: Bliss excess, mean over the matrix (fraction); higher = more synergy
[1] = tested on: OVCAR-5 (Ovarian Carcinoma)
How it was run: (§1)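 Bliss excess equals the observed combination effect minus the expected value EA + EB − EA·EB, where EA and EB are the effects of each agent alone. Combination Emax is the second-highest inhibition within the matrix. Inhibition was scaled from CellTiter-Glo 2.0 luminescence, with 0 set by vehicle wells and 1 by blank wells, after 72 hours of two-drug dosing of cells plated in 1536-well plates.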

[2] = tested on: CAL-33 (Oral Cavity Carcinoma)
How it was run: as §1

[3] = tested on: ESS-1 (Other Solid Carcinomas)
How it was run: as §1

[4] = tested on: LS-123 (Colorectal Carcinoma)
How it was run: as §1

[5] = tested on: MHH-CALL-2 (B-Lymphoblastic Leukemia)
How it was run: as §1

[6] = tested on: LOXIMVI (Melanoma)
How it was run: as §1

[7] = tested on: NCI-H1568 (Lung Adenocarcinoma)
How it was run: as §1

[8] = tested on: KYAE-1 (Esophageal Adenocarcinoma)
How it was run: as §1

[9] = tested on: CAL-72 (Osteosarcoma)
How it was run: as §1

[10] = tested on: LNZTA3WT4 (Low Grade Glioma)
How it was run: as §1

[11] = tested on: HeLa (Cervical Carcinoma)
How it was run: as §1

[12] = tested on: BE-13 (T-Lymphoblastic Leukemia)
How it was run: as §1

[13] = tested on: KS-1 (Glioblastoma)
How it was run: as §1

[14] = tested on: HuH-7 (Hepatocellular Carcinoma)
How it was run: as §1

[15] = tested on: KMRC-20 (Kidney Carcinoma)
How it was run: as §1

[16] = tested on: BE2-M17 (Neuroblastoma)
How it was run: as §1

[17] = tested on: L-428 (Hodgkin's Lymphoma)
How it was run: as §1

[18] = tested on: LCLC-97TM1 (Non-Small Cell Lung Carcinoma)
How it was run: as §1

[19] = tested on: OV-56 (Ovarian Carcinoma)
How it was run: as §1

[20] = tested on: NCI-H209 (Small Cell Lung Carcinoma)
How it was run: as §1

| Compound | Bliss excess [1] | Bliss excess [2] | Bliss excess [3] | Bliss excess [4] | Bliss excess [5] | Bliss excess [6] | Bliss excess [7] | Bliss excess [8] | Bliss excess [9] | Bliss excess [10] | Bliss excess [11] | Bliss excess [12] | Bliss excess [13] | Bliss excess [14] | Bliss excess [15] | Bliss excess [16] | Bliss excess [17] | Bliss excess [18] | Bliss excess [19] | Bliss excess [20] |
| --- | --- | --- | --- | --- | --- | --- | --- | --- | --- | --- | --- | --- | --- | --- | --- | --- | --- | --- | --- | --- |
| NC1(C(=O)N[C@@H](CCO)c2ccc(Cl)cc2)CCN(c2ncnc3[nH]ccc23)CC1 [Capivasertib] + CC(=O)c1c(C)c2cnc(Nc3ccc(N4CCNCC4)cn3)nc2n(C2CCCC2)c1=O [Palbociclib] (first compound max 10 µM, 7x7, partner max 10 µM) | -0.0396 | 0.0918 | -0.0479 | -0.0026 | -0.0739 | 0.0391 | -0.124 | -0.0168 | 0.0236 | 0.0103 | -0.0661 | -0.0485 | -0.0656 | 0.0124 | -0.0377 | 0.0059 | -0.0092 | 0.0152 | 0.0301 | -0.0433 |
| Cc1c2c(nn1C)CSCc1cc(n(C)n1)CSc1cc(c3ccccc3c1)OCCCc1c(C(=O)O)n(C)c3c-2c(Cl)ccc13 [AZD5991] + CN(C)CCCOc1ccc(-c2ccc3ncc4c(c3c2)n(C2CCOCC2)c(=O)n4C)cn1 [AZD0156] (first compound max 1 µM, 7x7, partner max 1 µM) | -0.024 | 0.0215 | 0.0027 | -0.01 | 0.0053 | 0.0016 | -0.0091 | -0.0009 | 0.0298 | -0.0135 | -0.0266 | -0.0285 | -0.0619 | 0.0316 | -0.0036 | 0.0023 | 0.0294 | -0.0018 | -0.0276 | 0.008 |
| Cn1cnc2c(F)c(Nc3ccc(Br)cc3Cl)c(C(=O)NOCCO)cc21 [Selumetinib] + CCN(CCO)CCCOc1ccc2c(Nc3cc(CC(=O)Nc4cccc(F)c4)[nH]n3)ncnc2c1 [AZD2811] (first compound max 10 µM, 7x7, partner max 1 µM) | -0.0054 | -0.0215 | -0.0617 | 0.0199 | 0.306 | 0.012 | -0.0612 | -0.0212 | -0.0369 | -0.0094 | -0.0561 | -0.0213 | -0.0324 | -0.0164 | -0.059 | -0.0073 | 0.0174 | 0.0594 | -0.0677 | 0.0805 |
| CC(=O)c1c(C)c2cnc(Nc3ccc(N4CCNCC4)cn3)nc2n(C2CCCC2)c1=O [Palbociclib] + Cc1c2c(nn1C)CSCc1cc(n(C)n1)CSc1cc(c3ccccc3c1)OCCCc1c(C(=O)O)n(C)c3c-2c(Cl)ccc13 [AZD5991] (first compound max 10 µM, 7x7, partner max 1 µM) | -0.0406 | 0.016 | -0.0067 | -0.0376 | -0.0451 | -0.0325 | -0.0149 | 0.0035 | -0.0073 | 0.0064 | -0.0225 | -0.0277 | -0.0556 | -0.011 | -0.0782 | 0.0096 | -0.0554 | -0.0149 | -0.0824 | -0.0107 |
| CC1(C)CCC(CN2CCN(c3ccc(C(=O)NS(=O)(=O)c4ccc(NCC5CCOCC5)c([N+](=O)[O-])c4)c(Oc4cnc5[nH]ccc5c4)c3)CC2)=C(c2ccc(Cl)cc2)C1 [Venetoclax] + C1CN(CCC1(C(=O)N[C@@H](CCO)C2=CC=C(C=C2)Cl)N)C3=NC=NC4=C3C=CN4 [Capivasertib] (first compound max 1 µM, 7x7, partner max 3 µM) | -0.0649 | 0.0084 | -0.0498 | -0.0134 | -0.0702 | -0.0142 | -0.0306 | -0.0582 | -0.04 | -0.0297 | -0.0669 | -0.0684 | -0.0161 | -0.0537 | -0.0172 | -0.0682 | -0.0577 | -0.033 | -0.0323 | -0.0005 |
| CS(=O)(=O)CCNCc1ccc(-c2ccc3ncnc(Nc4ccc(OCc5cccc(F)c5)c(Cl)c4)c3c2)o1 [Lapatinib] + C[C@@H](Oc1cc(-c2cnn(C3CCNCC3)c2)cnc1N)c1c(Cl)ccc(F)c1Cl [Crizotinib] (first compound max 10 µM, 7x7, partner max 10 µM) | -0.0818 | -0.0247 | -0.0637 | -0.0052 | 0.0219 | -0.0505 | -0.0174 | -0.0171 | -0.0926 | -0.0665 | -0.0031 | -0.0235 | -0.0458 | 0.0309 | -0.116 | -0.0652 | -0.0032 | -0.0093 | 0.0056 | -0.003 |
| COc1nnc2ccc(N3CCC(c4ccc(OCCN5CCN(C)C(=O)[C@H]5C)cc4)CC3)nn12 [AZD5153] + CCN(CCO)CCCOc1ccc2c(Nc3cc(CC(=O)Nc4cccc(F)c4)[nH]n3)ncnc2c1 [AZD2811] (first compound max 1 µM, 7x7, partner max 1 µM) | -0.0781 | -0.128 | -0.0091 | -0.0004 | 0.0191 | -0.0129 | -0.064 | -0.0092 | -0.012 | -0.0415 | -0.0457 | -0.0637 | -0.0317 | -0.051 | -0.148 | 0.102 | 0.0085 | -0.0325 | -0.0288 | -0.0145 |
